Assay [1] has as its system IL-12 production in human PBMC or THP-1 cells. Nature of the assay: Human in vitro assay: inhibition of IL-12 production (ELISA) in stimulated PBMC or THP-1 cells. It is filed as cell-based. The following applies: IFNγ plus LPS or SAC stimulation. The source says:
The biological activities of a heterocyclic compound can be evaluated by a number of cell-based assays. One of such assays can be conducted using cells from human peripheral blood mononuclear cells (PBMC) or human monocytic cell line (THP-1). The cells are stimulated with a combination of human interferon-γ (IFNγ) and lipopolysaccharide or a combination of IFNγ and Staphylococcus aureus Cowan I in the presence of a test compound. The level of inhibition of IL-12 production can be measured by determining the amount of p70 by using a sandwich ELISA assay with anti-human IL-12 antibodies. IC50 of the test compound can then be determined. Specifically, PBMC or THP-1 cells are incubated with the test compound. Cell viability was assessed using the bioreduction of MTS [3-(4,5-dimethylthiazol-2-yl)-5-(3-carboxymethoxyphenyl)-2-(4-sulfophenyl)-2H-tetrazolium] (Promega, Madison, Wis.).
Reagents. Staphylococcus aureus Cowan I (SAC) is obtained from Calbiochem (La Jolla, Calif.), and lipopolysaccharide (LPS, Serratia marscencens) is obtained from Sigma (St. Louis, Mo.). Human and mouse recombinant IFNγ are purchased from Boehringer Mannheim (Mannheim, Germany) and Pharmingen (San Diego, Calif.), respectively.
Human In Vitro Assay. Human PBMC were isolated by centrifugation using Ficoll-Paque (Pharmacia Biotech, Uppsala, Sweden) and prepared in RPMI medium supplemented with 10% fetal calf serum (FCS), 100 U/mL penicillin, and 100 μg/mL streptomycin. PBMC were plated in wells of a 96-well plate at a concentration of 5×10^5 cells/well, and primed by adding IFNγ (30 U/mL) for 22 h and stimulated by adding LPS (1 vg/mL), or by adding IFNγ (100 U/mL) and then stimulated by adding SAC (0.01%). A test pyridine compound was dissolved in DMSO, and added to wells of the 96-well plate. The final DMSO concentration was adjusted to 0.25% in all cultures, including the compound-free control. Human THP-1 cells were plated in wells, primed by adding IFNγ (100 U/mL) for 22 h and stimulated by adding SAC (0.025%) in the presence of different concentrations of the pyridine compound. Cell-free supernatants were taken 18 h later for measurement of cytokines. Cell viability was assessed using the bioreduction of MTS. Cell survival was estimated by determining the ratio of the absorbance in compound-treated groups versus compound-free control.
The supernatant was assayed for the amount of IL-12p40, IL-12p70, or IL-10 by using a sandwich ELISA with anti-human antibodies, i.e., a Human IL-12 p40 ELISA kit from R&D Systems (Berkeley, Calif.), and a Human IL-12 p70 or IL-10 ELISA kit from Endogen (Cambridge, Mass.). Assays were based on the manufacturer's instructions.
The biological activities of pyridine compounds were tested on human PBMC or THP-1 cells.
(In general: ELISA stands for enzyme-linked immunosorbent assay.)

Assay [2] concerns adjuvant arthritis (AA) in female Lewis rats. Nature of the assay: In vivo adjuvant arthritis assay in rats. On the set-up: species or system rat. As to conditions: oral, once a day for 7 days (day 7-14); dose-dependent; experiments repeated four times; FIG. 1. As to the method:
Treatment of adjuvant arthritis in rats: Adjuvant arthritis (AA) was induced in female Lewis rats by the intracutaneous injection (base of the tail) of 0.1 mL of a 10 mg/mL bacterial suspension made from ground, heat-killed Mycobacterium tuberculosis H37Ra suspended in incomplete Freund's adjuvant. Rats were given a test compound orally once a day for 7 days (day 7-14), starting day 7 after mycobacterium induction. The development of polyarthritis was monitored daily by macroscopic inspection and assignment of an arthritis index to each animal, during the critical period (days 10 to 25 post-immunization).
The intensity of polyarthritis was scored according to the following scheme: (a) Grade each paw from 0 to 3 based on erythema, swelling, and deformity of the joints: 0 for no erythema or swelling; 0.5 if swelling is detectable in at least one joint; 1 for mild swelling and erythema; 2 for swelling and erythema of both tarsus and carpus; and 3 for ankylosis and bony deformity.
Maximum score for all 4 paws was thus 12. (b) Grade for other parts of the body: for each ear, 0.5 for redness and another 0.5 if knots are present; 1 for connective tissue swelling (saddle nose); and 1 for the presence of knots or kinks in the tail. The highest possible arthritic index was 16.
Experiments with the AA model were repeated four times.

SMILES strings stand for the structures.

The source of these data is patent US8173651B2, “Pyridine compounds” (Synta Pharmaceuticals Corporation, priority 2003, dated 2012).

As to `COc1ccc(CCOc2cc(NN=Cc3c[nH]c4ccccc34)cc(N3CCOCC3)n2)cc1OC` [Compound 1, N-{2-[2-(3,4-Dimethoxy-phenyl)-ethoxy]-6-morpholin-4-yl-pyridin-4-yl}-N′-(1H-indol-3-ylmethylene)-hydrazine], the IC50 (in general, the point on the concentration scale where inhibition reaches its midpoint) in assay [1] amounted to 10 nM.
Turning to `COc1ccc(CCOc2cc(N3CCOCC3)cc(NN=Cc3c[nH]c4ccccc34)n2)cc1OC` [Compound 2, N-{6-[2-(3,4-Dimethoxy-phenyl)-ethoxy]-4-morpholin-4-yl-pyridin-2-yl}-N′-(1H-indol-3-ylmethylene)-hydrazine], in assay [1], the concentration for half-maximal inhibition (IC50) is 5 nM.
Turning to `COc1ccc(CCOc2cc(NN=Cc3c[nH]c4ccccc34)nc(N3CCOCC3)c2)cc1OC` [Compound 3, N-{4-[2-(3,4-Dimethoxy-phenyl)-ethoxy]-6-morpholin-4-yl-pyridin-2-yl}-N′-(1H-indol-3-ylmethylene)-hydrazine], the half-maximal inhibitory concentration (IC50) in assay [1] is 800 nM.
Turning to `COc1ccc(CCOc2cc(N3CCOCC3)cc(Nc3ccc4[nH]c(C)c(C)c4c3)n2)cc1OC` [Compound 4, {6-[2-(3,4-Dimethoxy-phenyl)-ethoxy]-4-morpholin-4-yl-pyridin-2-yl}-(2,3-dimethyl-1H-indol-5-yl)-amine], the IC50 in assay [1] stood at 197 nM.
Consider `COc1ccc(CCOc2cc(NN=Cc3cccc(C)c3)nc(N3CCOCC3)c2)cc1OC` [Compound 5, N-{4-[2-(3,4-Dimethoxy-phenyl)-ethoxy]-6-morpholin-4-yl-pyridin-2-yl}-N′-(3-methyl-benzylidene)-hydrazine], for which, in assay [1], the IC50 came out at 2000 nM.
For the compound `COc1ccc(CCOc2cc(NN=Cc3cccc(C)c3)cc(N3CCOCC3)n2)cc1OC` [Compound 6, N-{2-[2-(3,4-Dimethoxy-phenyl)-ethoxy]-6-morpholin-4-yl-pyridin-4-yl}-N′-(3-methyl-benzylidene)-hydrazine], the IC50 in assay [1] amounted to 5 nM.
As for `COc1ccc(CCOc2cc(N3CCOCC3)cc(NN=Cc3cccc(C)c3)n2)cc1OC` [Compound 7, N-{6-[2-(3,4-Dimethoxy-phenyl)-ethoxy]-4-morpholin-4-yl-pyridin-2-yl}-N′-(3-methyl-benzylidene)-hydrazine], the IC50 in assay [1] stood at 14.1 nM.
As for `COc1ccc(CCOc2cc(Nc3ccc4[nH]c(C)c(C)c4c3)cc(N3CCOCC3)n2)cc1OC` [Compound 8, {2-[2-(3,4-Dimethoxy-phenyl)-ethoxy]-6-morpholin-4-yl-pyridin-4-yl}-(2,3-dimethyl-1H-indol-5-yl)-amine], the 50% inhibitory concentration (IC50) in assay [1] was 28 nM.
As to `COc1ccc(CCOc2cc(Nc3ccc4[nH]c(C)c(C)c4c3)nc(N3CCOCC3)c2)cc1OC` [Compound 9, {4-[2-(3,4-Dimethoxy-phenyl)-ethoxy]-6-morpholin-4-yl-pyridin-2-yl}-(2,3-dimethyl-1H-indol-5-yl)-amine], the IC50 in assay [1] stood at 350 nM.
In the case of `COc1ccc(CCOc2cc(Nc3cccc(C)c3)nc(N3CCOCC3)c2)cc1OC` [Compound 10, {4-[2-(3,4-Dimethoxy-phenyl)-ethoxy]-6-morpholin-4-yl-pyridin-2-yl}-m-tolyl-amine], the IC50 in assay [1] worked out at 5000 nM.
As to `Cc1cccc(C=NNc2cc(OCCN3CCOC3=O)cc(N3CCOCC3)n2)c1` [Compound 11, 3-(2-{2-[N′-(3-methyl-benzylidene)-hydrazino]-6-morpholin-4-yl-pyridin-4-yloxy}-ethyl)oxazolidin-2-one], the 50% inhibitory concentration (IC50) in assay [1] was 927 nM.
The same measure, in the same setting: the figure for `Cc1cccc(C=NNc2nc(OCCN3CCOCC3)c(F)c(N3CCOCC3)c2F)c1` [Compound 12, N-[3,5-Difluoro-4-morpholin-4-yl-6-(2-morpholin-4-yl-ethoxy)-pyridin-2-yl]-N′-(3-methyl-benzylidene)-hydrazine] is greater than 1000 nM; for `Cc1cccc(/C=N/Nc2c(F)c(OCCN3CCOCC3)nc(N3CCOCC3)c2F)c1` [Compound 13, N-[3,5-Difluoro-2-morpholin-4-yl-6-(2-morpholin-4-yl-ethoxy)-pyridin-4-yl]-N′-(3-methyl-benzylidene)-hydrazine] it is 148 nM.
Turning to `Cc1cccc(/C=N/Nc2cc(N3CCOCC3)cc(OCCN3CCOCC3)n2)c1` [Compound 14, N-(3-Methyl-benzylidene)-N′-[4-morpholin-4-yl-6-(2-morpholin-4-yl-ethoxy)-pyridin-2-yl]-hydrazine], the IC50 in assay [1] stood at 25 nM. Moreover, in assay [2], the arthritic score result is reported as “reproducibly reduced the arthritic score” and the development of polyarthritis entry is reported as “delayed the development of polyarthritis”.
Turning to `C(=N\Nc1cc(N2CCOCC2)cc(OCCN2CCOCC2)n1)/c1c[nH]c2ccccc12` [Compound 16, N-(1H-Indol-3-ylmethylene)-N′-[4-morpholin-4-yl-6-(2-morpholin-4-yl-ethoxy)-pyridin-2-yl]-hydrazine], the IC50 in assay [1] came to 36.6 nM.
Take `Cc1cccc(/C=N/N(C)c2cc(N3CCOCC3)cc(OCCN3CCOCC3)n2)c1` [Compound 17, N-Methyl-N′-(3-methyl-benzylidene)-N-[4-morpholin-4-yl-6-(2-morpholin-4-yl-ethoxy)-pyridin-2-yl]-hydrazine]: the concentration for half-maximal inhibition (IC50) in assay [1] is 14.2 nM.
On to `Cc1cccc(/C=N/Nc2cc(OCCN3CCOC3=O)cc(N3CCOCC3)n2)c1` [Compound 18, 3-(2-{2-[N′-(3-Methyl-benzylidene)-hydrazino]-6-morpholin-4-yl-pyridin-4-yloxy}-ethyl)-oxazolidin-2-one], for which the IC50 in assay [1] is 927 nM.
As to `C(=N\Nc1cc(N2CCOCC2)cc(OCCN2CCOCC2)n1)/c1ccoc1` [Compound 19, N-Furan-3-ylmethylene-N′-[4-morpholin-4-yl-6-(2-morpholin-4-yl-ethoxy)-pyridin-2-yl]-hydrazine], the concentration for half-maximal inhibition (IC50) in assay [1] worked out at 5000 nM.
`Cc1ccc(N)c(/C=N/Nc2cc(N3CCOCC3)cc(OCCN3CCOCC3)n2)c1` [Compound 20, 4-Methyl-2-{[4-morpholin-4-yl-6-(2-morpholin-4-yl-ethoxy)-pyridin-2-yl]-hydrazonomethyl}-phenylamine]: the 50% inhibitory concentration (IC50) in assay [1] came to 11.4 nM.
Consider `Cc1cccc(/C=N/Nc2cc(N3CCOCC3)cc(OCCN3CCOCC3)[n+]2[O-])c1` [Compound 21, N-(3-Methyl-benzylidene)-N′-[4-morpholin-4-yl-6-(2-morpholin-4-yl-ethoxy)-1-oxy-pyridin-2-yl]-hydrazine], for which the half-inhibitory concentration (IC50) in assay [1] stood at 86 nM.
